{
  "source": "patent US9895375B2",
  "about": "“Compositions containing riboflavin and sesamin-class compounds” (SUNTORY HOLDINGS LIMITED, priority 2006, dated 2018)",
  "key": {"[1]": {"conditions": "intraperitoneally, 3 to 100 mg/kg; cited from earlier work"}, "[2]": {"conditions": "ingested in high doses; cited from earlier work"}, "male Balb/b mice": {"system": "male Balb/b mice", "test": "water immersion sleep deprivation test (weighted swimming time)", "assay_type": "in vivo", "conditions": "Example 3, FIG. 4; riboflavin 25 or 50 mg/kg (riboflavin equivalent), sesamin 50 mg/kg, p.o. once a day for 2 days of water immersion", "description": "That is, by measuring the swimming time in a water-immersion sleep deprivation test. A mouse, kept in such an environment as water immersion that they are unable to have a sufficient sleep or resting position to rest physically or mentally, is forced to swim under the stress of a weight and the time it takes to have its nose submerged in the water for at least 10 seconds is measured to determine the degree of its fatigue. Since this animal model is a physical and mental fatigue model, if the administration of a test substance prolongs the swimming time, it is confirmed that the model has resistance to fatigue, as exemplified by prevention or amelioration of physical and mental fatigue and the accompanying distress such as muscular pain, an increase in physical strength that helps prolong the time to exhaustion, and maintenance of physical vigor in a fatigued state.\nThe effect against fatigue was evaluated by a water immersion sleep deprivation test. […]\nAfter two days of water immersion, the mice were allowed to swim with a weight attached to each of their tails having a mass equivalent to 8% of their body weight, and the time they took to have their nose submerged in water for at least 10 seconds was measured.\nThe anti-fatigue action due to riboflavin and a sesamin-class compound(s) was measured as in Example 3, except that the mice were divided into six groups as shown in Table 2."}, "Wistar male rats": {"system": "Wistar male rats", "test": "acetic acid writhing test", "assay_type": "in vivo", "method": "A test on analgesic action was conducted by a partly modified version of the acetic acid writhing test of Moon et. al. (Biol. Pharm. Bull. (2005)). The specific test method was as follows. […] Three days before the acetic acid writhing test, the rats were divided into three groups each consisting of 6 heads; the control group was orally administered through a tube with olive oil at a dose of 5 ml/kg whereas the remaining two groups were administered with sesamin-class compounds (sesamin/episesamin mixture; sesamin: episesamin (weight ratio)=5:5) as they were dissolved in olive oil at respective doses of 50 mg/kg and 100 mg/kg. Subsequently, administration was similarly performed two days before the test and on the day before the test, two administrations were effected, one in the morning and the other in the evening; thus, a total of four administrations were effected. On the day of testing, rats that had been fasted overnight from the previous night were orally administered with 5 ml/kg of physiological saline and one hour later, they were administered intraperitoneally with 1 ml/170 g of physiological saline containing 1% acetic acid and immediately after this administration, the number of writhing movements the animals made for 30 minutes right after the administration was counted. […]"}, "[3]": {"conditions": "perorally, 1 to 50 mg/kg; no further rise up to 75 mg; cited from earlier work"}},
  "data": [
    {"molecule": "Cc1cc2nc3c(=O)[nH]c(=O)nc-3n(C[C@H](O)[C@H](O)[C@H](O)COP(=O)(O)O)c2cc1C", "note": "[riboflavin, riboflavin sodium phosphate]", "values": [
      {"measurement": "analgesic action against inflammatory pain", "setting": "[1]", "value": "showed an analgesic action against inflammatory pain in a dose-dependent fashion"},
      {"measurement": "effect against pain in the nervous system", "setting": "[1]", "value": "ineffective"},
      {"measurement": "migraine prophylaxis", "setting": "[2]", "value": "effective for migraine prophylaxis"},
      {"measurement": "suppression of the shortening of the swimming time (anti-fatigue action)", "setting": "male Balb/b mice", "value": "suppressed in the shortening of the swimming time"},
      {"measurement": "number of writhing movements versus control group (Olive+Saline)", "setting": "Wistar male rats; Example 1, FIG. 2, vitamin B2 30 mg/kg riboflavin equivalent p.o. alone", "value": "tendency to make a smaller number of writhing movements than the control group"},
      {"measurement": "suppression of number of writhing movements compared with control group (Olive+Saline)", "setting": "Wistar male rats; Example 2, FIG. 3, vitamin B2 30 mg/kg riboflavin equivalent p.o., sesamin-class compounds 100 mg/kg p.o. x4 in the combination", "value": 10.5, "unit": "%"},
      {"measurement": "analgesic effect in a formaldehyde test", "setting": "[3]", "value": "peaked at 25 mg"}
    ]}
  ]
}
